Legend:
[1] = tested on: barnyardgrass (Echinochloa crus-galli); test: Test A preemergence, barnyardgrass; type: in vivo; conditions: Echinochloa crus-galli, pre-emergence, 240 h, 0 to 100 scale (0 no effect, 100 complete control), read-out: Plant response rating, Barnyardgrass; for pest or weed control at 31 g/ha: 31 g ai/ha; for pest or weed control at 125 g/ha: 125 g ai/ha
Excerpt: (§1) Seeds of plant species selected from barnyardgrass (Echinochloa crus-galli), kochia (Kochia scoparia), ragweed (common ragweed, Ambrosia elatior), ryegrass, Italian (Italian ryegrass, Lolium multiflorum), foxtail, giant (giant foxtail, Setaria faberii), foxtail, green (green foxtail, Setaria viridis) and pigweed (Amaranthus retroflexus) were planted into a blend of loam soil and sand and treated preemergence with a directed soil spray using test chemicals formulated in a non-phytotoxic solvent mixture which included a surfactant.
(§2) At the same time, plants selected from these weed species and also wheat (Triticum aestivum), corn (Zea mays), blackgrass (Alopecurus myosuroides), and galium (catchweed bedstraw, Galium aparine) were planted in pots containing the same blend of loam soil and sand and treated with postemergence applications of test chemicals formulated in the same manner. Plants ranged in height from 2 to 10 cm and were in the one- to two-leaf stage for the postemergence treatment. Treated plants and untreated controls were maintained in a greenhouse for approximately 10 days, after which time all treated plants were compared to untreated controls and visually evaluated for injury. […] A dash (-) response means no test result.

[2] = tested on: kochia (Kochia scoparia); test: Test A preemergence, kochia; type: in vivo; conditions: Bassia scoparia, pre-emergence, 240 h, 0 to 100 scale (0 no effect, 100 complete control), read-out: Plant response rating, Kochia; for pest or weed control at 31 g/ha: 31 g ai/ha; for pest or weed control at 125 g/ha: 125 g ai/ha
Excerpt: as §1, §2

[3] = tested on: ragweed (common ragweed, Ambrosia elatior); test: Test A preemergence, ragweed; type: in vivo; conditions: Ambrosia artemisiifolia, pre-emergence, 240 h, 0 to 100 scale (0 no effect, 100 complete control), read-out: Plant response rating, Ragweed
Excerpt: as §1, §2

[4] = tested on: ryegrass, Italian (Italian ryegrass, Lolium multiflorum); test: Test A preemergence, ryegrass, Italian; type: in vivo; conditions: Lolium multiflorum, pre-emergence, 240 h, 0 to 100 scale (0 no effect, 100 complete control), read-out: Plant response rating, Ryegrass, Italian; for pest or weed control at 31 g/ha: 31 g ai/ha; for pest or weed control at 125 g/ha: 125 g ai/ha
Excerpt: as §1, §2

[5] = tested on: pigweed (Amaranthus retroflexus); test: Test A preemergence, pigweed; type: in vivo; conditions: Amaranthus retroflexus, pre-emergence, 240 h, 0 to 100 scale (0 no effect, 100 complete control), read-out: Plant response rating, Pigweed; for pest or weed control at 31 g/ha: 31 g ai/ha; for pest or weed control at 125 g/ha: 125 g ai/ha
Excerpt: as §1, §2

[6] = tested on: barnyardgrass (Echinochloa crus-galli); test: Test A postemergence, barnyardgrass; type: in vivo; conditions: Echinochloa crus-galli, post-emergence, 240 h, 0 to 100 scale (0 no effect, 100 complete control), read-out: Plant response rating, Barnyardgrass; for pest or weed control at 31 g/ha: 31 g ai/ha; for pest or weed control at 125 g/ha: 125 g ai/ha
Excerpt: as §1, §2

[7] = tested on: kochia (Kochia scoparia); test: Test A postemergence, kochia; type: in vivo; conditions: Bassia scoparia, post-emergence, 240 h, 0 to 100 scale (0 no effect, 100 complete control), read-out: Plant response rating, Kochia; for pest or weed control at 31 g/ha: 31 g ai/ha; for pest or weed control at 125 g/ha: 125 g ai/ha
Excerpt: as §1, §2

[8] = tested on: ragweed (common ragweed, Ambrosia elatior); test: Test A postemergence, ragweed; type: in vivo; conditions: Ambrosia artemisiifolia, post-emergence, 240 h, 0 to 100 scale (0 no effect, 100 complete control), read-out: Plant response rating, Ragweed; for pest or weed control at 31 g/ha: 31 g ai/ha; for pest or weed control at 125 g/ha: 125 g ai/ha
Excerpt: as §1, §2

[9] = tested on: ryegrass, Italian (Italian ryegrass, Lolium multiflorum); test: Test A postemergence, ryegrass, Italian; type: in vivo; conditions: Lolium multiflorum, post-emergence, 240 h, 0 to 100 scale (0 no effect, 100 complete control), read-out: Plant response rating, Ryegrass, Italian; for pest or weed control at 31 g/ha: 31 g ai/ha; for pest or weed control at 125 g/ha: 125 g ai/ha
Excerpt: as §1, §2

[10] = tested on: pigweed (Amaranthus retroflexus); test: Test A postemergence, pigweed; type: in vivo; conditions: Amaranthus retroflexus, post-emergence, 240 h, 0 to 100 scale (0 no effect, 100 complete control), read-out: Plant response rating, Pigweed; for pest or weed control at 31 g/ha: 31 g ai/ha; for pest or weed control at 125 g/ha: 125 g ai/ha
Excerpt: as §1, §2

[11] = tested on: wheat (Triticum aestivum); test: Test A postemergence, wheat; type: in vivo; conditions: Triticum aestivum, post-emergence, 240 h, 0 to 100 scale (0 no effect, 100 complete control), read-out: Plant response rating, Wheat; for plant injury at 31 g/ha: 31 g ai/ha; for plant injury at 125 g/ha: 125 g ai/ha
Excerpt: as §1, §2

[12] = tested on: corn (Zea mays); test: Test A postemergence, corn; type: in vivo; conditions: Zea mays, post-emergence, 240 h, 0 to 100 scale (0 no effect, 100 complete control); for Corn plant response rating (crop injury, 0 = no effect, 100 = complete kill) at 31 g/ha: 31 g ai/ha; for Corn plant response rating (crop injury, 0 = no effect, 100 = complete kill) at 125 g/ha: 125 g ai/ha
Excerpt: as §1, §2

[13] = tested on: blackgrass (Alopecurus myosuroides); test: Test A postemergence, blackgrass; type: in vivo; conditions: Alopecurus myosuroides, post-emergence, 240 h, 0 to 100 scale (0 no effect, 100 complete control), read-out: Plant response rating, Blackgrass; for pest or weed control at 31 g/ha: 31 g ai/ha; for pest or weed control at 125 g/ha: 125 g ai/ha
Excerpt: as §1, §2

[14] = tested on: galium (catchweed bedstraw, Galium aparine); test: Test A postemergence, galium; type: in vivo; conditions: Galium, post-emergence, 240 h, 0 to 100 scale (0 no effect, 100 complete control), read-out: Plant response rating, Galium; for pest or weed control at 31 g/ha: 31 g ai/ha; for pest or weed control at 125 g/ha: 125 g ai/ha
Excerpt: as §1, §2

[15] = tested on: rice (Oryza sativa); test: Test B flooded paddy test, rice; conditions: Oryza sativa, read-out: Plant response rating, Rice (0 to 100 scale, 0 is no effect, 100 is complete control)
[16] = tested on: ducksalad (Heteranthera limosa); test: Test B flooded paddy test, ducksalad; conditions: Heteranthera limosa, read-out: Plant response rating, Ducksalad (0 to 100 scale, 0 is no effect, 100 is complete control)
[17] = tested on: barnyardgrass (Echinochloa crus-galli); test: Test B flooded paddy test, barnyardgrass; conditions: Echinochloa crus-galli, read-out: Plant response rating, Barnyardgrass (0 to 100 scale, 0 is no effect, 100 is complete control)

O=C1Cc2cccc(Oc3ncc(Cl)cn3)c2C(CCCC(F)(F)F)O1 (stereo not drawn) [Compound 17, 8-[(5-Chloro-2-pyrimidinyl)oxy]-1,4-dihydro-1-(4,4,4-trifluorobutyl)-3H-2-benzopyran-3-one]
pest or weed control at 31 g/ha [1]: 10% | pest or weed control at 125 g/ha [1]: 50% | pest or weed control at 31 g/ha [2]: 0% | pest or weed control at 125 g/ha [2]: 60% | pest or weed control at 31 g/ha ([3]; 31 g ai/ha): 0% | pest or weed control at 125 g/ha ([3]; 125 g ai/ha): 0% | pest or weed control at 31 g/ha [4]: 0% | pest or weed control at 125 g/ha [4]: 10% | pest or weed control at 31 g/ha [5]: 60% | pest or weed control at 125 g/ha [5]: 100% | pest or weed control at 31 g/ha [6]: 10% | pest or weed control at 125 g/ha [6]: 70% | pest or weed control at 31 g/ha [7]: 30% | pest or weed control at 125 g/ha [7]: 70% | pest or weed control at 31 g/ha [8]: 10% | pest or weed control at 125 g/ha [8]: 10% | pest or weed control at 31 g/ha [9]: 0% | pest or weed control at 125 g/ha [9]: 10% | pest or weed control at 31 g/ha [10]: 50% | pest or weed control at 125 g/ha [10]: 70% | plant injury at 31 g/ha [11]: 0% | plant injury at 125 g/ha [11]: 10% | Corn plant response rating (crop injury, 0 = no effect, 100 = complete kill) at 31 g/ha [12]: 20% | Corn plant response rating (crop injury, 0 = no effect, 100 = complete kill) at 125 g/ha [12]: 20% | pest or weed control at 31 g/ha [13]: 20% | pest or weed control at 125 g/ha [13]: 50% | pest or weed control at 31 g/ha [14]: 40% | pest or weed control at 125 g/ha [14]: 90% | plant injury at 250 g/ha [15]: 0% | pest or weed control at 250 g/ha [16]: 0% | pest or weed control at 250 g/ha [17]: 0%

FC(F)(F)CCC1COc2cccc(Oc3ncc(Cl)cn3)c21 (stereo not drawn) [Compound 36, 5-Chloro-2-[[2,3-dihydro-3-(3,3,3-trifluoropropyl)-4-benzofuranyl]oxy]pyrimidine]
pest or weed control at 31 g/ha [1]: 0% | pest or weed control at 125 g/ha [1]: 0% | pest or weed control at 31 g/ha [2]: 0% | pest or weed control at 125 g/ha [2]: 0% | pest or weed control at 31 g/ha [4]: 0% | pest or weed control at 125 g/ha [4]: 0% | pest or weed control at 31 g/ha [5]: 0% | pest or weed control at 125 g/ha [5]: 0% | pest or weed control at 31 g/ha [6]: 0% | pest or weed control at 125 g/ha [6]: 10% | pest or weed control at 31 g/ha [7]: 30% | pest or weed control at 125 g/ha [7]: 50% | pest or weed control at 31 g/ha [8]: 0% | pest or weed control at 125 g/ha [8]: 0% | pest or weed control at 31 g/ha [9]: 0% | pest or weed control at 125 g/ha [9]: 0% | pest or weed control at 31 g/ha [10]: 10% | pest or weed control at 125 g/ha [10]: 10% | plant injury at 31 g/ha [11]: 0% | plant injury at 125 g/ha [11]: 0% | Corn plant response rating (crop injury, 0 = no effect, 100 = complete kill) at 31 g/ha [12]: 0% | Corn plant response rating (crop injury, 0 = no effect, 100 = complete kill) at 125 g/ha [12]: 0% | pest or weed control at 31 g/ha [13]: 0% | pest or weed control at 125 g/ha [13]: 0% | pest or weed control at 31 g/ha [14]: 10% | pest or weed control at 125 g/ha [14]: 10% | plant injury at 250 g/ha [15]: 0% | pest or weed control at 250 g/ha [16]: 50% | pest or weed control at 250 g/ha [17]: 0%
